Patent publication US20250243343A1, “LUBRICANT COMPOSITION FOR PREPARING ETHYLENE-BASED POLYMER AND METHOD OF PREPARING ETHYLENE-BASED POLYMER USING THE SAME” (SK INNOVATION CO., LTD., priority 2024, published 2025)

What was measured:
[1] = Acrylic acid self-polymerization (time until PAA formation); details: for Polymerization time: oil:stabilizer 100:0.5, AA:lubricant composition 1:1 by weight, 100° C.; for polymerization stability time / PAA formation inhibition effect (in words): Table 1
Procedure: The reactor was heated to 100° C., followed by observing whether a self-polymer (PAA) was formed in the reactor every 10 minutes. As soon as the PAA was observed visually, the experiment was stopped and a polymerization time was recorded.

[2] = Measurement of solubility of the oxidation stabilizer in white mineral oil (visual observation); details: Table 1
Procedure: A lubricant composition was prepared by mixing a white mineral oil and the oxidation stabilizer of Table 1 below in a weight ratio of 100:0.1.
The lubricant composition was left for 1 hour and observed visually. If precipitation occurred or the lubricant composition discolored or became opaque, it was evaluated as “X.” When no precipitation occurred and the lubricant composition was colorless and transparent, it was evaluated as “O.”

[3] = nitrogen atmosphere, PAA observed visually every 10 minutes

Compound	Polymerization time [1, 3]	also measured
CCCCCCCCSc1nc(Nc2cc(C(C)(C)C)c(O)c(C(C)(C)C)c2)nc(SCCCCCCCC)n1 [B-12]	–	Polymerization time ([1]; class symbol): — (When the PAA was formed within 10 minutes, it was evaluated as “-.”)
CCc1cc(C(C)(C)C)c(O)c(C(C)(C)C)c1 [B-14, 2,6-Di-tert-butyl-4-ethylphenol]	–	Polymerization time ([1]; class symbol): — (When the PAA was formed within 10 minutes, it was evaluated as “-.”)
Cc1cc(C(C)(C)C)c(O)c(C(C)(C)C)c1 [B-1, Butylated hydroxytoluene]	2 h	polymerization stability time / PAA formation inhibition effect (in words) [1]: greatly reduced
CCc1cc(Cc2cc(CC)cc(C(C)(C)C)c2O)c(O)c(C(C)(C)C)c1 [B-10, 2,2′-Methylenebis(6-tert-butyl-4-ethylphenol)]	0.333 h	–
CCC(C)(C)c1ccc(O)c(C(C)(C)CC)c1 [B-9, 2,4-Di-tert-amylphenol]	2 h	–
Cc1c(C)c2c(c(C)c1O)CC[C@@](C)(CCC[C@H](C)CCC[C@H](C)CCCC(C)C)O2 [B-4, Vitamin E]	0.5 h	–
CC(C)(C)c1cc(CCC(=O)OCCSCCOC(=O)CCc2cc(C(C)(C)C)c(O)c(C(C)(C)C)c2)cc(C(C)(C)C)c1O [B-13, 2,2″-Thiodiethylene Bis [3-(3,5-di-tert-butyl-4-hydroxyphenyl) propionate]]	–	Polymerization time ([1]; class symbol): — (When the PAA was formed within 10 minutes, it was evaluated as “-.”)
CC(C)(C)c1cc(C(=O)O)cc(C(C)(C)C)c1O [B-7, 3,5-Di-tert-butyl-4-hydroxybenzoic acid]	0.333 h	–
COc1ccc(O)c(C(C)(C)C)c1 [A-1, Butylated hydroxyanisole]	>150 h	polymerization stability time / PAA formation inhibition effect (in words) [1]: greatly increased; solubility in the white mineral oil (in words) [2]: high
CC(C)(C)CC(C)(C)c1cc(O)c(C(C)(C)CC(C)(C)C)cc1O [B-11, 2,5-Bis(1,1,3,3-tetramethylbutyl) hydroquinone]	2 h	–
CCOP(=O)(Cc1cc(C(C)(C)C)c(O)c(C(C)(C)C)c1)OCC [B-8, Diethyl 3,5-Di-tert-butyl-4-hydroxybenzylphosphonate]	0.333 h	–
CC(C)(C)c1cc(O)c(O)c(C(C)(C)C)c1 [B-17, 3,5-Di-tert-butylcatechol]	5 h	–
bis(nonylphenyl)amine [B-16]	0.667 h	–
CCCCCCCCOc1ccc(C(=O)c2ccccc2)c(O)c1 [B-18, 2-hydroxy-4-n-octyloxybenzophenone]	0.333 h	–
COc1ccc(O)c(C(C)(C)C)c1 [A-3, 3-tert-butyl-4-hydroxyanisole]	72 h	–
CCCCCCCCSc1nc(Nc2cc(C(C)(C)C)c(O)c(C(C)(C)C)c2)nc(SCCCCCCCC)n1 [B-19]	0.333 h	–
COc1cc(C(C)(C)C)c(O)c(C(C)(C)C)c1 [A-2, 2,6-Di-tert-butyl-4-methoxyphenol]	23 h	–
CC(C)(C)c1cccc(C(C)(C)C)c1O [B-5, 2,6-Di-tert-butylphenol]	–	Polymerization time ([1]; class symbol): — (When the PAA was formed within 10 minutes, it was evaluated as “-.”)
COc1ccc(O)cc1 [B-2, 4-Methoxyphenol]	>150 h	solubility in the white mineral oil (in words) [2]: greatly decreased
CC(C)(C)c1cc(CO)cc(C(C)(C)C)c1O [B-6, 2,6-Di-tert-butyl-4-hydroxymethylphenol]	2 h	–
c1ccc2c(c1)Nc1ccccc1S2 [B-3, Phenothiazine]	>150 h	solubility in the white mineral oil (in words) [2]: not substantially dissolved
